In patent US20230014137A1, “COMPOUND HAVING LYSOPHOSPHATIDIC ACID RECEPTOR AGONIST ACTIVITY AND PHARMACEUTICAL USE THEREOF” (ONO PHARMACEUTICAL CO., LTD., priority 2019, published 2023):

Molecular target: T1, human LPA3 receptor (Homo sapiens, UniProt Q9UBY5)
T1 construct: expressed in transfected cells; host or cells: CHO cells (Chinese hamster ovary) with the LPA1 receptor knocked down
T1 sequence (Q9UBY5 1-353): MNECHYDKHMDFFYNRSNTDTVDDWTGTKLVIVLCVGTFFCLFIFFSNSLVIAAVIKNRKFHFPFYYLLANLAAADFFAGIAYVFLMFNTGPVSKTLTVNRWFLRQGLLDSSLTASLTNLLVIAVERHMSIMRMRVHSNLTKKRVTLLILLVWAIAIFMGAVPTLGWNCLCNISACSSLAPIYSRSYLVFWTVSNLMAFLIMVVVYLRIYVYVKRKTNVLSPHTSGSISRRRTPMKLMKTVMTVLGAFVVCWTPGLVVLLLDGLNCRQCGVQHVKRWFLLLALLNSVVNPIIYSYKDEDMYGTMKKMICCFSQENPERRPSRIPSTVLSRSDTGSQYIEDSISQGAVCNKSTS
Assay: LPA3 agonist activity measurement (Method B): intracellular Ca2+ in LPA1-knockdown CHO cells stably expressing human LPA3 receptor
Format: cell-based
Conditions: LPA1-knockdown CHO cells expressing human LPA3, Ca2+ fluorescence
Description: (Method B) A cell line stably expressing a human LPA3 receptor using a cell obtained by knocking down an LPA1 receptor of CHO cells of Chinese hamster ovary as a host was subjected to an experiment. The cryopreserved cells were thawed and suspended in loading buffer (Hank's Balanced Salt Solution containing 0.02 mol/L HEPES, 2.5 mmol/L probenecid, 0.1% BSA, 5 μmol/L Fluo-4, Quenching Buffer, Pluronic F-127) so as to be 1×10^5 cells/mL. The plate was allowed to stand under conditions of 5% CO2 and 37° C. for 1 hour, then the buffer was replaced with an assay buffer (Hank's Balanced Salt Solution containing 0.02 mol/L HEPES, 2.5 mmol/L probenecid, 0.1% BSA), and the cells were seeded in a 384 well optical bottom plate (384 Well microplate, low volume, Corning, 3540) at 10 μL/well.
A plate was set in a fluorescent drug screening system (Hamamatsu Photonics K.K.), and after 15 seconds from the start of the measurement, 10 μL of a positive control, the test substance or the cell-added solution containing only DMSO was added thereto, and the measurement was performed for 1 minute. A fluorescence wavelength of 540 nm at an excitation wavelength of 480 nm was measured, and intracellular […] concentration was indicated by fluorescence intensity change.
Agonist action of the test substance was calculated as a ratio increase degree after addition of the test substance when a ratio increase value indicated by the positive control or the cell-added solution containing was added was set to 100%. Further, EC50 value was calculated as a 50% action concentration using Microsoft Excel, from an activity (%) at concentrations before and after agonist activity exceeds 50%.

Compound	EC50 [nM]
Cc1ccc(Cn2c(C(=O)O)c(CNC3CCC3)c3cccnc32)cc1 [Example 2(49), 3-[(Cyclobutylamino)methyl]-1-(4-methylbenzyl)-1H-pyrrolo[2,3-b]pyridine-2-carboxylic acid]	100
O=C(O)c1c(CNC2CCCC2)c2ccccc2n1Cc1ccccc1Cl [Example 2(70), 1-(2-Chlorobenzyl)-3-[(cyclopentylamino)methyl]-1H-indole-2-carboxylic acid]	200
O=C(O)c1c(CNC2CCC2)c2ccccc2n1Cc1cccs1 [Example 2(74), 3-[(Cyclobutylamino)methyl]-1-(2-thienylmethyl)-1H-indole-2-carboxylic acid]	30
O=C(O)c1c(CNC2CCC2)c2ccccc2n1Cc1ccccc1Cl [Example 2(6), 1-(2-Chlorobenzyl)-3-[(cyclobutylamino)methyl]-1H-indole-2-carboxylic acid]	50
O=C(O)c1c(CNC2CCC2)c2ccccc2n1CC1CC1(F)F (centres unmarked) [Example 1(3), 3-[(Cyclobutylamino)methyl]-1-[(2,2-difluorocyclopropyl)methyl]-1H-indole-2-carboxylic acid]	200
Cc1ccc(Cn2c(C(=O)O)c(CNC3CCC3C)c3ccccc32)cc1 (centres unmarked) [Example 2(46)]	100
CSc1ccccc1Cn1c(C(=O)O)c(CNC2CCC2)c2ccccc21 [Example 2(75), 3-[(Cyclobutylamino)methyl]-1-[2-(methylthio)benzyl]-1H-indole-2-carboxylic acid]	60
O=C(O)c1c(CNC2CC2)c2ccccc2n1Cc1ccccc1Cl [Example 2(72), 1-(2-Chlorobenzyl)-3-[(cyclopropylamino)methyl]-1H-indole-2-carboxylic acid]	100
CCn1c(C(=O)O)c(CNC2CCC2)c2ccccc21 [Example 1(4), 3-[(Cyclobutylamino)methyl]-1-ethyl-1H-indole-2-carboxylic acid]	600

Second part, the compound after the results:

EC50 [nM]	Compound
60	Cc1ccc(Cn2c(C(=O)NS(C)(=O)=O)c(CNC3CCC3)c3ccccc32)cc1 [Example 19, 3-[(Cyclobutylamino)methyl]-1-(4-methylbenzyl)-N-(methylsulfonyl)-1H-indole-2-carboxamide]
200	Cc1ccc(Cn2c(C(=O)O)c(CNC3CCC3)c3cccc(C#N)c32)cc1 [Example 9(1), 7-Cyano-3-[(cyclobutylamino)methyl]-1-(4-methylbenzyl)-1H-indole-2-carboxylic acid]
100	O=C(O)c1c(CNC2CCC2)c2ccccc2n1Cc1ccccc1OC(F)F [Example 2(53), 3-[(Cyclobutylamino)methyl]-1-[2-(difluoromethoxy)benzyl]-1H-indole-2-carboxylic acid]
60	Cc1ccc(Cn2c(C(=O)O)c(CNC3CSC3)c3ccccc32)cc1 [Example 2(71), 1-(4-Methylbenzyl)-3-[(3-thiethanylamino)methyl]-1H-indole-2-carboxylic acid]
40	O=C(O)c1c(CNC2CCC2)c2ccccc2n1Cc1cccc(C2CC2)c1 [Example 2(41), 3-[(Cyclobutylamino)methyl]-1-(3-cyclopropylbenzyl)-1H-indole-2-carboxylic acid]

Molecular target: T1, human LPA3 receptor
Assay: LPA3 agonist activity measurement (Method A): intracellular Ca2+ in RH7777 cells stably expressing human LPA3 receptor
Format: cell-based
Conditions: RH7777 cells expressing human LPA3, Ca2+ fluorescence
Experimental: (Method A) Using RH7777 cells derived from rat hepatocellular carcinoma as a host, each cell line (Multispan, Inc., Cat No. C1048-6, C1050-6, and C1053-6) stably expressing a human LPA3 receptor was subjected to an experiment. The cells cultured until reaching subconfluence were detached, and suspended in a medium (DMEM containing 10% FBS, 1% penicillin/streptomycin, 30 μg/mL puromycin) so as to be 4×10^5 cells/mL. The cells were seeded in a 96 well optical bottom plate (Asahi Techno Glass, MT4940-010) at 100 μL/well, and cultured under conditions of 5% CO2 and 37° C. for 1 day.
On the day of measurement, the medium was removed, and a medium containing 0.2% FBS was added at 100 μL/well, and cultured for 4 to 6 hours. Thereafter, the medium was removed, and an assay buffer (Hank's Balanced Salt Solution containing 0.02 mol/L HEPES, 2.5 mmol/L probenecid, 0.1% BSA, 5 μmol/L Fluo-4, Quenching Buffer, Pluronic F-127) was added at 100 μL/well, and the cells were incubated with 5% CO2 at 37° C. for about 1 hour. The plate was set in a fluorescent drug screening system (Hamamatsu Photonics K.K.), and after 30 seconds from the start of measurement, 25 μL of a cell-added solution containing only a test substance or dimethyl sulfoxide (hereinafter, it is abbreviated as DMSO.) was added thereto. After 3 minutes, 25 μL of a ligand was further added thereto, and then measurement was performed for 4 minutes. A fluorescence wavelength of 540 nm at an excitation wavelength of 480 nm was measured, and intracellular Ca^2+ concentration was indicated by fluorescence intensity change.
Agonist action of the test substance was calculated as a ratio increase degree after addition of the test substance when a ratio increase value indicated by cells to which a cell-added solution containing only DMSO was added at the time of ligand addition was set to 100%. Further, EC50 value was calculated as a 50% action concentration using Microsoft Excel, from an activity (%) at concentrations before and after agonist activity exceeds 50%.

Compound	EC50 [nM]
Cc1ccc(Cn2c(C)c(-c3cccc(F)c3)c(CNC3CCC3)c2C(=O)O)cc1 [Example 6(2), 3-[(Cyclobutylamino)methyl]-4-(3-fluorophenyl)-5-methyl-1-(4-methylbenzyl)-1H-pyrrole-2-carboxylic acid]	900
Cc1ccc(Cn2c(Br)c(C)c(CNC3CCC3)c2C(=O)O)cc1 [Example 2(34), 5-Bromo-3-[(cyclobutylamino)methyl]-4-methyl-1-(4-methylbenzyl)-1H-pyrrole-2-carboxylic acid]	40
O=C(O)c1c(CNC2CCC2)c2ccccc2n1CC1CC1(F)F (centres unmarked) [Example 1(3), 3-[(Cyclobutylamino)methyl]-1-[(2,2-difluorocyclopropyl)methyl]-1H-indole-2-carboxylic acid]	500
C=Cc1c(CNC2CCC2)c(C(=O)O)n(Cc2ccc(C)cc2)c1C [Example 6(7), 3-[(Cyclobutylamino)methyl]-5-methyl-1-(4-methylbenzyl)-4-vinyl-1H-pyrrole-2-carboxylic acid]	1000
CCn1c(C(=O)O)c(CNC2CCC2)c2ccccc21 [Example 1(4), 3-[(Cyclobutylamino)methyl]-1-ethyl-1H-indole-2-carboxylic acid]	600
Cc1ccc(Cn2c(C(=O)O)c(C(C)NC3CCC3)c3ccccc32)cc1 (centres unmarked) [Example 5, 3-[1-(Cyclobutylamino)ethyl]-1-(4-methylbenzyl)-1H-indole-2-carboxylic acid]	100

The remaining lines, values ahead:

EC50 [nM]	Compound
1000	Cc1ccc(Cn2c(C(=O)O)c(CNC3CC3)c3ccccc32)cc1 [Example 2(18), 3-[(Cyclopropylamino)methyl]-1-(4-methylbenzyl)-1H-indole-2-carboxylic acid]
100	Cc1ccc(Cn2c3c(c(CNC4CCC4)c2C(=O)O)CCCC3)cc1 [Example 7, 3-[(Cyclobutylamino)methyl]-1-(4-methylbenzyl)-4,5,6,7-tetrahydro-1H-indole-2-carboxylic acid]
60	Cc1ccc(Cn2c(C(=O)O)c(CNC3CCC3)c3ccccc32)cc1 [Example 2, 3-[(Cyclobutylamino)methyl]-1-(4-methylbenzyl)-1H-indole-2-carboxylic acid]
